Here are results for five compounds from patent US20030040510A1, “Selective estrogen receptor modulators in combination with estrogens” (Endorecherche, Inc., priority 2000, published 2003).

Assay [1] relates to breast and endometrial tissues. The assay is described as follows: Antiestrogens tested for SERM function and estrogenic activity in breast and endometrium. The conditions noted are these: for Estrogenic activity in breast and endometrial tissues: physiological or pharmacological concentrations. The source says: As used herein, a selective estrogen receptor modulator (SERM) is a compound that either directly or through its active metabolite functions as an estrogen receptor antagonist (“antiestrogen”) in breast tissue, yet provides estrogenic or estrogen-like effect on bone tissue and on serum cholesterol levels (i.e. by reducing serum cholesterol). Non-steroidal compounds that function as estrogen receptor antagonists in vitro or in human or rat breast tissue (especially if the compound acts as an antiestrogen on human breast cancer cells) is likely to function as a SERM. Conversely, steroidal antiestrogens tend not to function as SERMs because they tend not to display any beneficial effect on serum cholesterol. […] These SERMs may be called “pure SERMs”. […] This second series of SERMs may be called “mixed SERMs”. The unwanted estrogenic activities of these “mixed SERMs”, may be inhibited by addition of pure “SERMs” as shown in FIGS. 6 and 7 in in vitro tests and in FIG. 9 in an in vivo test of breast cancer.

Assay [2] concerns ovariectomized female rats. The assay is described as follows: Prevention of bone loss, body fat, serum cholesterol and ALP, 26-week treatment of OVX rats (Example 5A, experiment 2). The assay is classed as in vivo, Sprague-Dawley rats. As to conditions: 26 weeks. As for the experimental part:
(§1) Ten to twelve week-old female Sprague-Dawley rats (Crl:CD(SD)Br) (Charles River Laboratory, St-Constant, Canada) weighing approximately 220-270 g at start of treatment were used. The animals were acclimatized to the environmental conditions (temperature: 22±3° C.; humidity: 50±20%; 12-h light-12-h dark cycles, lights on at 07:15 h) for at least 1 week before starting the experiments. The animals were housed individually and were allowed free access to tap water and a pelleted certified rodent feed (Lab Diet 5002, Ralston Purina, St-Louis, Mo.). Experiments were conducted in an animal facility approved by the Canadian Council on Animal Care (CCAC) and the Association for Assessment and Accreditation of Laboratory Animal Care (AAALAC) in accordance with the CCAC Guide for Care and Use of Experimental Animals.
On day 1 of the study, the animals of the appropriate groups were bilaterally OVX under isoflurane anesthesia. Tested compounds were administered as suspension in 0.4% methylcellulose by oral gavage. Treatments were initiated on day 2 of the study and were performed once daily during 26 weeks. In both experiments, animals not receiving a test article were treated with the appropriate vehicle alone during the same period.
(§2) After 3 months (experiment 1) or 26 weeks (experiment 2) of treatment, individual rats under Isoflurane anesthesia had their whole body skeleton and lumbar spine scanned using dual energy x-ray absorptiometry (DEXA; QDR 4500A, Hologic, Waltham, Mass.) and a Regional High Resolution Scan software. The bone mineral density (BMD) of the lumbar spine (vertebrae L2 to L4) and the total body composition (fat percentage) were determined.
(§3) After 3 months (experiment 1) or 26 weeks (experiment 2) of treatment, blood samples were collected at the jugular vein from overnight fasted animals (under Isoflurane anesthesia). Samples were processed for serum preparation and frozen at −80° C. until assay. Serum cholesterol levels and alkaline phospatase activity (ALP) were determined using the Boehringer Mannheim Diagnostic Hitachi 911 Analyzer (Boehringer Mannheim Diagnostic Laboratory Systems).

The subject of the next assay is endometrial epithelium. The assay is described as follows: Thickness of uterine (endometrial) epithelial cells in the mice of Example 8. The conditions noted are these: for Endometrial epithelium thickness: OVX + antiestrogen 200 μg daily, no estrone, 161 days. The assay is classed as in vivo, nude mice. The source says:
The 17 groups included two control groups (OVX and OVX+Estrone), seven groups supplemented with an estrone implant and treated with an antiestrogen and eight other groups that received an antiestrogen alone. The estrone implants were then removed from the animals in the ovariectomized control group (OVX) and in groups that were to receive the antiestrogen alone. […] Tamoxifen was purchased from […], Israel) while toremifene citrate was purchased from Orion (Espoo, Finland). […] Animals in both control groups received 0.2 ml of the vehicle alone. The antiestrogen suspensions at the appropriate concentration were prepared each month, stored at 4° C. and used under constant agitation. Powder stock were hermetically stored at 4° C. […] After 161 days of treatment, the remaining animals were anesthetized with isoflurane and killed by exsanguination. […] The uteri were prepared to evaluate endometrial thickness by image analysis performed with Image Pro-Plus (Media Cybernetics, Maryland, USA). […] Hematoxylin- and eosin-stained sections of mice uteri were analysed. […] Mean epithelial cell height was measured in all animals of each group.

For the next assay, the system named is ZR-75-1 breast tumors. The assay is described as follows: Growth and response category of human ZR-75-1 breast tumors in OVX nude mice, 7 antiestrogens, 161 days (Example 8). The assay is classed as in vivo. The conditions noted are these: 161 days; for Change of ZR-75-1 tumor size compared to the OVX control group: 200 μg daily alone. As for the experimental part:
The mice (5 per cage) were housed in vinyl cages equipped with air filter lids, which were kept in laminar airflow hoods and maintained under pathogen-limiting conditions. The photoperiod was 12 hours of light and 12 hours of darkness (lights on at 07:15). Cages, bedding and food (Agway Pro-Lab R-M-H Diet #4018) were autoclaved before use. Water was autoclaved and provided ad libitum. Bilateral ovariectomy was performed under isoflurane-induced anesthesia. […] Randomization and treatments were started one week later. […] The 17 groups included two control groups (OVX and OVX+Estrone), seven groups supplemented with an estrone implant and treated with an antiestrogen and eight other groups that received an antiestrogen alone. The estrone implants were then removed from the animals in the ovariectomized control group (OVX) and in groups that were to receive the antiestrogen alone. […] Tamoxifen was purchased from […], Israel) while toremifene citrate was purchased from Orion (Espoo, Finland). […] Animals in both control groups received 0.2 ml of the vehicle alone. The antiestrogen suspensions at the appropriate concentration were prepared each month, stored at 4° C. and used under constant agitation. Powder stock were hermetically stored at 4° C. […] Tumor response was assessed at the end of the study or at death of each animal, if it occurred during the course of the experiment. In this case, only data of mice that survived for at least half of the study (84 days) were used in the tumor response analysis.

Assay [3] concerns OVX rats having established osteopenia. The assay is described as follows: Treatment of OVX rats having established osteopenia, 26 weeks (Example 5B): BMD, total body fat. As to conditions: treatment started 10 weeks after OVX, 26 weeks daily. In kind it is in vivo, Sprague-Dawley rats. As for the experimental part:
as §1, with “Height” for “Ten”, “nine month-old” for “twelve week-old”, “Canada)” for “Canada) weighing approximately 220-270 g at start of treatment”, “used in this experiment.” for “used.”, “prior to” for “before starting”, “ovariectomy. Animals were bilaterally ovariectomized (OVX) under isoflurane anesthesia. Twenty animals were kept intact as control.” for “experiments.”
Treatments were initiated 10 weeks after the ovariectomy and were performed once daily during 26 weeks. Animals not receiving a test article were treated with the appropriate vehicle alone during the same period.
Prior to the OVX, prior to the first day treatment (10 weeks after OVX) and after 26 weeks of treatment, individual rats under Isoflurane anesthesia had their whole body skeleton, lumbar spine and right femur scanned using dual energy x-ray absorptiometry (DEXA; QDR 4500A, Hologic, Waltham, Mass.) and a Regional High Resolution Scan software. The bone mineral density (BMD) of the lumbar spine (vertebrae L2 to L4), femur and the total body composition (fat percentage) were determined.

The subject of assay [4] is ovariectomized rats supplemented with 17β-estradiol. The assay is described as follows: EM-652.HCl with oral 17β-estradiol for 2 weeks in OVX rats: uterus, endometrial epithelium, vagina, serum cholesterol (Example 10). In kind it is in vivo, Sprague-Dawley rats. As for the experimental part:
Ten to twelve week-old female Sprague-Dawley rats (Crl:CD(SD)Br) (Charles River Laboratory, St-Constant, Canada) weighing 215-265 g at time of ovariectomy were used. The animals were housed individually in an environmentally-controlled room (temperature: 22±3° C.; humidity: 50±20%; 12-h light-12-h dark cycles, lights on at 07:15 h). The animals were allowed free access to tap water and a certified rodent feed (Lab Diet 5002 (pellet), Ralston Purina, St-Louis, Mo.). The experiment was conducted in an animal facility approved by the Canadian Council on Animal Care (CCAC) and the Association for Assessment and Accreditation of Laboratory Animal Care (AAALAC) in accordance with the CCAC Guide for Care and Use of Experimental Animals.
On the first day of the study, the animals of the appropriate groups were bilaterally ovariectomized (OVX) under isoflurane anesthesia. The tested compounds were then given once daily by oral gavage as a suspension in 0.4% methylcellulose (0.5 ml/rat) from day 1 to day 14 of the study. Animals of groups 1 and 2 received the vehicle alone during the same time period. On day 15 of the study, 4 animals per group were perfused with 10% buffered formalin and tissues were processed for histological examination. The other animals were killed by exsanguination at the abdominal aorta under isoflurane anesthesia. The uterus and vagina were removed, stripped of remaining fat and weighed. A specimen from each uterus was fixed in 10% buffered formalin for determination of the height of endometrial epithelial cells using a computerized-assisted program (Software Image-Pro Plus).
Total cholesterol was measured on serum samples collected from overnight fasted animals using a Boehringer Mannheim Diagnostic Hitachi 911 Analyzer (Boehringer Mannheim Diagnostic Laboratory Systems).

Assay [5] concerns ovariectomized female rats. The assay is described as follows: Prevention of bone loss, body fat, serum cholesterol and ALP, 3-month treatment of OVX rats (Example 5A, experiment 1). As to conditions: OVX rats, 3 months. In kind it is in vivo, Sprague-Dawley rats. As for the experimental part:
as §1
On day 1 of the study, the animals of the appropriate groups were bilaterally ovariectomized (OVX) under isoflurane anesthesia. […] Treatments were initiated on day 2 of the study and were performed once daily during 3 months.
as §2, §3

Assay [6] concerns uterus and vagina of ovariectomized mice. The assay is described as follows: Uterine and vaginal weight in ovariectomized mice treated or not with estrone (9 days oral). In kind it is in vivo, BALB/c mice. As for the experimental part: (St-Constant, Quebec, Canada) and housed 5 per cage in a temperature (23±1° C.)—and light (12 h light/day, lights on at 7:15)—controlled environment. The mice were fed rodent chow and tap water ad libitum. […] Ten mice were kept intact as controls. […] Compounds were dissolved in ethanol (4% final concentration) and administered in 0.4% methylcellulose. Mice in the intact and OVX control groups received the vehicle alone (4% ETOH-0.4% methylcellulose) during the 9-day period. The animals were killed by exsanguination at the abdominal aorta on the 11th morning following ovariectomy.

Setting [7] is: 10 μg alone, absence of estrone, OVX mice.

Structures can show the parent of a compound that is named as a salt. Marks after values point to notes of the source that are not given here.

With `Oc1ccc2c(c1)CC[C@H](c1ccccc1)[C@@H]2c1ccc(OCCN2CCCC2)cc1` (racemic) [Lasofoxifene, cis-1R-[4′-pyrrolidino-ethoxyphenyl]-2S-phenyl-6-hydroxy-1,2,3,4,-tetrahydronaphthalene D-(−)-tartrate salt], the “Function as SERM” value in assay [1] is recorded as “found to function as SERMs”. In assay [2] (OVX rats), this compound gave a Serum cholesterol of 0.60 ± 0.02 mmol/L. In addition, the “OVX-induced increase on serum cholesterol levels” value in assay [2] (alone or in combination with Premarin) was “completely prevented”.
As to `CC/C(=C(/c1ccc(OCCN(C)C)cc1)c1cccc(O)c1)c1ccccc1` [Droloxifene, (E)-3-[1-[4-[2-(Dimethylamino)ethoxy]phenyl]-2-phenyl-1-butenyl]phenol], in assay [1], the “Function as SERM” value is on record as “found to function as SERMs”; the “Estrogenic activity in breast and endometrial tissues” value (from here on “Estrogenic activity”) was “have some estrogenic activities”. In addition, the Endometrial epithelium thickness with endometrial epithelium turned out to be 18.50 ± 0.07 μm. In addition, in the assay on ZR-75-1 breast tumors (50 μg daily + estrone), the Progressing tumors came out at 100%. Further, the “Change of ZR-75-1 tumor size compared to the OVX control group” value in the assay on ZR-75-1 breast tumors (absence of estrone) is “did not significantly change”.
`C[C@]12CC[C@@H]3c4ccc(O)cc4CC[C@H]3[C@@H]1CC[C@@H]2O` [E2, 17β-estradiol, reference compound]: in assay [3], the “Femoral BMD” value is listed as “completely prevented the further decrease”, the “Lumbar spine BMD” value is reported as “completely prevented the further decrease” and the Total body fat result is on record as “prevented the 17% increase”. For the same compound, in assay [4] (OVX + E2 2 mg/kg), the Endometrial epithelial height stood at 41.9±1.2 μm, the “Endometrial epithelial height higher than in intact control animals” value was 34.7%, the “Inhibition of serum cholesterol levels” value is recorded as 53% and the Vaginal weight was 149.9 ± 9.0 mg. The Uterine weight in assay [4] (OVX + E2 2 mg/kg oral daily, 2 weeks) is 490 ± 26 mg. Besides, the “Serum ALP” value in assay [5] was determined as 59 ± 4 IU/L.
For `CC/C(=C(\c1ccc(I)cc1)c1ccc(OCCN2CCCC2)cc1)c1ccccc1` [Idoxifene, (E)-1-[2-[4-[1-(4-Iodophenyl)-2-phenyl-1-butenyl]phenoxy]ethyl]pyrrolidine], the “Function as SERM” value in assay [1] is “found to function as SERMs”. In addition, the “Estrogenic activity” value in assay [1] is recorded as “have some estrogenic activities”. For the same compound, the “Inhibition of the stimulatory effect of estrone on epithelial height” value in the assay on endometrial epithelium (50 μg daily oral + estrone) is 50%. The Progressing tumors came out at 71% in the assay with ZR-75-1 breast tumors (50 μg daily + estrone) and 33% in the assay with ZR-75-1 breast tumors (200 μg daily, absence of estrone).
With `Cl.O=C(c1ccc(OCCN2CCCCC2)cc1)c1c(-c2ccc(O)cc2)sc2cc(O)ccc12` [Raloxifene, [2-(4-hydroxyphenyl)-6-hydroxybenzo[b]thien-3-yl][4-[2-(1-piperidinyl)ethoxy]phenyl]-methanone hydrochloride], in assay [1], the “Function as SERM” value is given as “found to function as SERMs”; the “Estrogenic activity” value is “have some estrogenic activities”. Besides, in assay [6] (setting [7]), the “Stimulation of uterine weight” value was 85% and the “Stimulation of vaginal weight” value worked out at 56%. In addition, the “Inhibition of estrone-stimulated vaginal weight” value in assay [6] (10 μg daily oral, 9 days, OVX mice + E1) is 24%. For the same compound, the Endometrial epithelium thickness in the assay with endometrial epithelium is on record as 22.33^a ± 0.05 μm. In addition, in the assay on ZR-75-1 breast tumors (50 μg daily + estrone), the Progressing tumors came out at 81%. Further, the “Change of ZR-75-1 tumor size compared to the OVX control group” value with ZR-75-1 breast tumors (absence of estrone) is “did not significantly change”.
